For 20 compounds, IC50 results are on record in patent US10479780B2, “Aminopyrazole derivatives” (Chugai Seiyaku Kabushiki Kaisha, priority 2015, dated 2019).

Structures are written as SMILES. Like-named read-outs stand apart in the source and are kept apart here.

Common to all, as to assay type: biochemical
The target of one experiment is T1, human Yes1 enzyme (Homo sapiens, UniProt P07947).
T1 construct: made in house
The experiment can be described thus: Yes1 enzyme inhibitory activity (time-resolved fluorometry, biotinylated peptide phosphorylation). Conditions: read-out: YES_IC50. An outline of the steps:
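Inhibition was expressed against a compound-free control to give IC50, using TR-FRET read-out (Eu-cryptate anti-pTyr antibody, streptavidin-XL665).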

Another experiment concerns the target T2, human Lck enzyme (Homo sapiens, UniProt P06239).
T2 construct: purchased Carna Biosciences, Inc. 08-170
The experiment can be described thus: Lck enzyme inhibitory activity (time-resolved fluorometry, biotinylated peptide phosphorylation). Conditions: read-out: LCK_IC50. The essentials: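 Readout pairs a europium cryptate-labelled anti-phosphotyrosine antibody with XL665-streptavidin, measured by time-resolved fluorescence. IC50 derived from percent inhibition against untreated controls.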

The target of a further experiment is T3, human Src enzyme (Homo sapiens, UniProt P12931).
T3 construct: purchased Carna Biosciences, Inc. 08-173
The experiment can be described thus: Src enzyme inhibitory activity (time-resolved fluorometry, biotinylated peptide phosphorylation). Conditions: read-out: SRC_IC50. An outline of the steps:
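Compounds were tested for blocking tyrosine phosphorylation of a biotinylated peptide substrate by recombinant human Src. Phosphorylated product was quantified by time-resolved fluorometry using europium cryptate and XL665 conjugates, and IC50 was calculated against the compound-free control.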

Where [1] appears, read: biotinylated peptide phosphorylation.

T2 sequence (P06239 whole entry): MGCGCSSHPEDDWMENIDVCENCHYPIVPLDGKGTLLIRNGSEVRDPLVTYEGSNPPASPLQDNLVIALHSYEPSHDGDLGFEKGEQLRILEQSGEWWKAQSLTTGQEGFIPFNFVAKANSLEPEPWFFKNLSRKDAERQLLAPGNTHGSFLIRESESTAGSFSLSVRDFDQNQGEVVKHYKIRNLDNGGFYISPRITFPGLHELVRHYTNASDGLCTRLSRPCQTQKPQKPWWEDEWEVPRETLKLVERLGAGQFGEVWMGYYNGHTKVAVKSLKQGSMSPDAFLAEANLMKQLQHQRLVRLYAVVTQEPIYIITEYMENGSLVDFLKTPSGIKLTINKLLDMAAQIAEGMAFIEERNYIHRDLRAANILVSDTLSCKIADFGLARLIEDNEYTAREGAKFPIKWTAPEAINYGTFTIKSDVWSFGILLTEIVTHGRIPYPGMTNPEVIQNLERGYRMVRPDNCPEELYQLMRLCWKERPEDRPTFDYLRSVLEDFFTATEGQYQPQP
T1 sequence (P07947 whole entry): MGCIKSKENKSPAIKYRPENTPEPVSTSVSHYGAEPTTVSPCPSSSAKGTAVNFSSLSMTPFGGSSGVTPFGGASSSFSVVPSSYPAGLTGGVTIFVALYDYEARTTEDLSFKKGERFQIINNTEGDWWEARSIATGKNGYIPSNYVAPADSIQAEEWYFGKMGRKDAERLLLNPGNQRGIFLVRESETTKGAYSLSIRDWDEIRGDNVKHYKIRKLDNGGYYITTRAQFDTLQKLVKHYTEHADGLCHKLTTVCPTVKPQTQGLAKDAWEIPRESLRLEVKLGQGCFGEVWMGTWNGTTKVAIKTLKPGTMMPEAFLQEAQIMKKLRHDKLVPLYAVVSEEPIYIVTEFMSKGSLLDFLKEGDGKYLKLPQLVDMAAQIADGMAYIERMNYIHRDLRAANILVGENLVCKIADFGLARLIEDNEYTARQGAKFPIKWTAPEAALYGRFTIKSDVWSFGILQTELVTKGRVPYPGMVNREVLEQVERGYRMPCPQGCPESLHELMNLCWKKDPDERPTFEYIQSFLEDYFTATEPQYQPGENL
T3 sequence (P12931 whole entry): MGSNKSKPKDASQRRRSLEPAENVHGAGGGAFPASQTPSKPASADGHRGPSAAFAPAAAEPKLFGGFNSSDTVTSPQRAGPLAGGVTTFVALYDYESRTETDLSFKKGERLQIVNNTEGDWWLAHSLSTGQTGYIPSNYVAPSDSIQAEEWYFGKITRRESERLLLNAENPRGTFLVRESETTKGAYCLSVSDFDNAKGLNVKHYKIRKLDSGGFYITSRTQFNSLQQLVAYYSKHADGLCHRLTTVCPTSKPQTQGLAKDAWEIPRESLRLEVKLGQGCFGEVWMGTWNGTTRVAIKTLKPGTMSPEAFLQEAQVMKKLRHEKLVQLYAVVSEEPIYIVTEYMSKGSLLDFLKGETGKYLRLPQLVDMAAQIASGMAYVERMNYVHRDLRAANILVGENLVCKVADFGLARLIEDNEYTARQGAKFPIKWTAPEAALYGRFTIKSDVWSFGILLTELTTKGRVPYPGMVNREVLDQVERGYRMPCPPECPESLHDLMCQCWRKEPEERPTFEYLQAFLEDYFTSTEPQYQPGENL

On to `Cc1cc(Oc2ccccc2F)ccc1-n1ncc(C(=O)c2cc3cc(OC4CCN(C(C)C)CC4)c(N4CCC(N5CCOCC5)CC4)cc3[nH]2)c1N` [Example 5-1-194, [5-amino-1-[4-(2-fluorophenoxy)-2-methylphenyl]pyrazol-4-yl]-[6-(4-morpholin-4-ylpiperidin-1-yl)-5-(1-propan-2-ylpiperidin-4-yl)oxy-1H-indol-2-yl]methanone], for which the IC50 was 0.35 nM on human Yes1 enzyme, 1.2 nM on human Lck enzyme and 1.5 nM on human Src enzyme.

As to `Cc1cc(Oc2c(F)cccc2F)ncc1-n1ncc(C(=O)c2cc3cc(F)c(N4CC5(CCOCC5)NS4(=O)=O)cc3[nH]2)c1N` [Example 5-1-400, [5-amino-1-[6-(2,6-difluorophenoxy)-4-methylpyridin-3-yl]pyrazol-4-yl]-[6-(2,2-dioxo-8-oxa-2λ6-thia-13-diazaspiro[4.5]decan-3-yl)-5-fluoro-1H-indol-2-yl]methanone], the values for the IC50 at human Yes1 enzyme (setting [1]), at human Lck enzyme (setting [1]) and on human Src enzyme (setting [1]) were 2.1 nM, 14 nM and 76 nM, respectively.

With `Cc1cc2cc(C(=O)c3cnn(-c4cnc(Oc5ccccc5F)cc4C)c3N)[nH]c2cc1NS(=O)(=O)CC(=O)N1CCCC1` [Example 5-1-121, N-[2-[5-amino-1-[6-(2-fluorophenoxy)-4-methylpyridin-3-yl]pyrazole-4-carbonyl]-5-methyl-1H-indol-6-yl]-2-oxo-2-pyrrolidin-1-ylethanesulfonamide], the IC50 on human Yes1 enzyme turned out to be 1.7 nM; at human Lck enzyme it was 14 nM; on human Src enzyme, 90 nM.

For the compound `Cc1cc(Oc2ccccc2F)ccc1-n1ncc(C(=O)c2cc3cc(OCC(F)F)c(N4CCOC4=O)cc3[nH]2)c1N` [Example 4-21-003, 3-[2-[5-amino-1-[4-(2-fluorophenoxy)-2-methylphenyl]pyrazole-4-carbonyl]-5-(2,2-difluoroethoxy)-1H-indol-6-yl]-1,3-oxazolidin-2-one], the IC50 on human Yes1 enzyme (setting [1]) turned out to be 0.53 nM; on human Lck enzyme (setting [1]), 1.5 nM; on human Src enzyme (setting [1]), 2.4 nM.

As for `Cc1cc(Oc2ccccc2F)ccc1-n1ncc(C(=O)c2cc3cc(OCC(F)F)c(N4C(=O)NC5(CCN(C6COC6)C5)C4=O)cc3[nH]2)c1N` (stereo not drawn) [Example 5-1-353, 3-(2-(5-amino-1-(4-(2-fluorophenoxy)-2-methylphenyl)-1H-pyrazole-4-carbonyl)-5-(2,2-difluoroethoxy)-1H-indol-6-yl)-7-(oxetan-3-yl)-1,3,7-triazaspiro[4.4]nonane-2,4-dione], the values for the IC50 at human Yes1 enzyme, at human Lck enzyme and at human Src enzyme were 5.5 nM, 14 nM and 73 nM, respectively.

For the compound `COc1cc2cc(C(=O)c3cnn(-c4c(C)cc(Oc5ccccc5)cc4F)c3N)[nH]c2cc1NS(C)(=O)=O` [Example 4-1-007, N-[2-[5-amino-1-(2-fluoro-6-methyl-4-phenoxyphenyl)pyrazole-4-carbonyl]-5-methoxy-1H-indol-6-yl]methanesulfonamide], the IC50 on human Yes1 enzyme (setting [1]) came out at 1.1 nM; on human Lck enzyme (setting [1]), 7.5 nM; at human Src enzyme (setting [1]), 61 nM.

For the compound `Cc1cc2cc(C(=O)c3cnn(-c4cnc(Oc5ccccc5F)cc4C)c3N)[nH]c2cc1NS(=O)(=O)c1cc(C(F)(F)F)ccn1` [Example 5-1-485, N-[2-[5-amino-1-[6-(2-fluorophenoxy)-4-methylpyridin-3-yl]pyrazole-4-carbonyl]-5-methyl-1H-indol-6-yl]-4-(trifluoromethyl) pyridine-2-sulfonamide], the values for the IC50 on human Yes1 enzyme (setting [1]), on human Lck enzyme (setting [1]) and at human Src enzyme (setting [1]) were 6.8 nM, 110 nM and 520 nM, respectively.

In the case of `Cc1cc(Oc2ccccc2F)cc(C)c1-n1ncc(C(=O)c2cc3cc(F)c(NS(C)(=O)=O)cc3[nH]2)c1N` [Example 5-1-032, N-[2-[5-amino-1-[4-(2-fluorophenoxy)-2,6-dimethylphenyl]pyrazole-4-carbonyl]-5-fluoro-1H-indol-6-yl]methanesulfonamide], the figures for the IC50 on human Yes1 enzyme, at human Lck enzyme and at human Src enzyme were 11 nM, 130 nM and 380 nM, respectively.

Take `Cc1cc(-n2ncc(C(=O)c3cc4cc(OC[C@H](O)CO)c(Br)cc4[nH]3)c2N)ccc1Oc1ccccc1F` [Example 5-1-237, (R)-(5-amino-1-(4-(2-fluorophenoxy)-3-methylphenyl)-1H-pyrazol-4-yl)(6-bromo-5-(2,3-dihydroxypropoxy)-1H-indol-2-yl)methanone]: the IC50 was 1.5 nM at human Yes1 enzyme, 36 nM on human Lck enzyme and 180 nM on human Src enzyme.

`Cc1cc(-n2ncc(C(=O)c3cc4cc(F)c(NS(C)(=O)=O)cc4[nH]3)c2N)ccc1Oc1ccccc1F` [Example 5-1-017, N-[2-[5-amino-1-[4-(2-fluorophenoxy)-3-methylphenyl]pyrazole-4-carbonyl]-5-fluoro-1H-indol-6-yl]methanesulfonamide]: the IC50 amounted to 4.5 nM at human Yes1 enzyme, 630 nM at human Lck enzyme and 2400 nM on human Src enzyme.

Take `Cc1cc2cc(C(=O)c3cnn(-c4ccc(Oc5ccccc5F)cc4C)c3N)[nH]c2cc1N1C(=O)N[C@@H](C(C)C)C1=O` [Example 5-1-476, (5S)-3-[2-[5-amino-1-[4-(2-fluorophenoxy)-2-methylphenyl]pyrazole-4-carbonyl]-5-methyl-1H-indol-6-yl]-5-propan-2-ylimidazolidine-2,4-dione]: the IC50 came to 2.9 nM at human Yes1 enzyme (setting [1]), 12 nM on human Lck enzyme (setting [1]) and 97 nM on human Src enzyme (setting [1]).

Turning to `Cc1ccccc1Oc1cc(C)c(-n2ncc(C(=O)c3cc4cc(Cl)c(NS(C)(=O)=O)cc4[nH]3)c2N)cn1` [Example 4-2-090, N-[2-[5-amino-1-[4-methyl-6-(2-methylphenoxy)pyridin-3-yl]pyrazole-4-carbonyl]-5-chloro-1H-indol-6-yl]methanesulfonamide], the IC50 on human Yes1 enzyme (setting [1]) turned out to be 1.5 nM; at human Lck enzyme (setting [1]), 17 nM; at human Src enzyme (setting [1]) it was 110 nM.

With `Cc1cc(Oc2ccccc2F)ccc1-n1ncc(C(=O)c2cc3cc(OCC(F)F)c(NS(=O)(=O)N4CCOCC4)cc3[nH]2)c1N` [Example 4-22-005, N-[2-[5-amino-1-[4-(2-fluorophenoxy)-2-methylphenyl]pyrazole-4-carbonyl]-5-(2,2-difluoroethoxy)-1H-indol-6-yl]morpholine-4-sulfonamide], the values for the IC50 at human Yes1 enzyme (setting [1]), on human Lck enzyme (setting [1]) and at human Src enzyme (setting [1]) were 1.8 nM, 20 nM and 44 nM, respectively.

In the case of `Cc1cc2cc(C(=O)c3cnn(-c4cnc(Oc5c(F)cccc5F)cc4C)c3N)[nH]c2cc1N1C(=O)NC2(CCNC2)C1=O` (stereo not drawn) [Example 5-1-358, 3-[2-[5-amino-1-[6-(2,6-difluorophenoxy)-4-methylpyridin-3-yl]pyrazole-4-carbonyl]-5-methyl-1H-indol-6-yl]-1,3,7-triazaspiro[4.4] nonane-2,4-dione], the IC50 at human Yes1 enzyme turned out to be 1.8 nM; on human Lck enzyme it was 4.2 nM; on human Src enzyme, 21 nM.

Regarding `CC(C)N1CCC(c2cc3[nH]c(C(=O)c4cnn(-c5ccc(Oc6cccc(Cl)c6)cc5F)c4N)cc3cc2F)CC1` [Example 5-1-010, [5-amino-1-[4-(3-chlorophenoxy)-2-fluorophenyl]pyrazol-4-yl]-[5-fluoro-6-(1-propan-2-ylpiperidin-4-yl)-1H-indol-2-yl]methanone], the IC50 at human Yes1 enzyme was found to be 2.5 nM; on human Lck enzyme it was 3.6 nM; at human Src enzyme, 38 nM.

Consider `Cc1cc(Oc2c(F)cccc2F)ncc1-n1ncc(C(=O)c2cc3cc(OC(F)F)c(NS(=O)(=O)N4CCOCC4)cc3[nH]2)c1N` [Example 4-22-003, N-[2-[5-amino-1-[6-(2,6-difluorophenoxy)-4-methylpyridin-3-yl]pyrazole-4-carbonyl]-5-(difluoromethoxy)-1H-indol-6-yl]morpholine-4-sulfonamide], for which the results for the IC50 on human Yes1 enzyme (setting [1]), at human Lck enzyme (setting [1]) and on human Src enzyme (setting [1]) were 2.9 nM, 62 nM and 170 nM, respectively.

For `Cc1cc(Oc2c(F)cccc2F)ncc1-n1ncc(C(=O)c2cc3cc(F)c(NS(=O)(=O)C4CCOCC4)cc3[nH]2)c1N` [Example 5-1-381, N-[2-[5-amino-1-[6-(2,6-difluorophenoxy)-4-methylpyridin-3-yl]pyrazole-4-carbonyl]-5-fluoro-1H-indol-6-yl]oxane-4-sulfonamide], the IC50 at human Yes1 enzyme was 3.3 nM; at human Lck enzyme, 43 nM; on human Src enzyme, 56 nM.

Consider `Cc1cc(Oc2ccccc2F)ccc1-n1ncc(C(=O)c2cc3cc(OC(F)F)c(N4CCOC4=O)cc3[nH]2)c1N` [Example 4-21-007, 3-[2-[5-amino-1-[4-(2-fluorophenoxy)-2-methylphenyl]pyrazole-4-carbonyl]-5-(difluoromethoxy)-1H-indol-6-yl]-1,3-oxazolidin-2-one], for which the IC50 at human Yes1 enzyme (setting [1]) is 0.51 nM; at human Lck enzyme (setting [1]), 6.5 nM; on human Src enzyme (setting [1]), 8.7 nM.

As to `Cc1cc(-n2ncc(C(=O)c3cc4cc(OC5CCN(C6CS(=O)(=O)C6)CC5)c(Br)cc4[nH]3)c2N)ccc1Oc1ccccc1F` [Example 5-1-227, [5-amino-1-[4-(2-fluorophenoxy)-3-methylphenyl]pyrazol-4-yl]-[6-bromo-5-[1-(1,1-dioxothietan-3-yl)piperidin-4-yl]oxy-1H-indol-2-yl]methanone], the IC50 at human Yes1 enzyme is 3.9 nM; at human Lck enzyme it was 46 nM; at human Src enzyme, 560 nM.

As for `Cc1cc(Oc2c(F)cccc2F)ncc1-n1ncc(C(=O)c2cc3cc(F)c(N4C(=O)NC5(CC5)C4=O)cc3[nH]2)c1N` [Example 5-1-343, 6-[2-[5-amino-1-[6-(2,6-difluorophenoxy)-4-methylpyridin-3-yl]pyrazole-4-carbonyl]-5-fluoro-1H-indol-6-yl]-4,6-diazaspiro[2.4] heptane-5,7-dione], the IC50 on human Yes1 enzyme is 3 nM; at human Lck enzyme, 7.2 nM; on human Src enzyme, 100 nM.
